{
  "source": "ChEMBL document CHEMBL5705903",
  "about": "“A DNA Hypomethylation Signature Predicts Antitumor Activity of LSD1 Inhibitors in SCLC” (Cancer Cell, 2015)",
  "key": {"NCI-H526 [1]": {"test_system": "NCI-H526", "experiment": "In vivo inhibition of LSD1 in human NCI-H526 cells xenografted in nude mouse assessed as change in TSPAN8 gene expression administrated daily for 5 days by qRT-PCR analysis", "type": "functional, organism-based", "conditions": "dose 0.02-135 mg/kg, time 5.0 day"}, "[2]": {"experiment": "Effect on cleaved PARP level in human NCI-H1694 cells assessed as relative expression at 1000 nM measured after 7 days by Western blot analysis (reference value: 0.25)", "type": "functional", "conditions": "time 7 day"}, "[3]": {"experiment": "Effect on cleaved PARP level in human NCI-H1417 cells assessed as relative expression at 1000 nM measured after 14 days by Western blot analysis (reference value: 0.38)", "type": "functional", "conditions": "time 14 day"}, "NCI-H446": {"test_system": "NCI-H446", "experiment": "Effect on NSE gene expression in human NCI-H446 cells at 1 uM measured after 4 to 7 days by qRT-PCR analysis", "type": "functional, cell-based", "conditions": "time 4-7 day"}, "[4]": {"experiment": "Toxicity in rat assessed as suppression of platelet in bone marrow measured for 28 days", "type": "cell-based", "conditions": "672 h, time 28 day"}, "NCI-H526 [5]": {"test_system": "NCI-H526", "experiment": "Upregulation of LSD1 signal enrichment at super enhancers in human NCI-H526 cells at 1 uM", "type": "functional, cell-based"}, "[6]": {"experiment": "Effect on cleaved PARP level in human NCI-H1417 cells assessed as relative expression at 1000 nM measured after 7 days by Western blot analysis (reference value: 0.10)", "type": "functional", "conditions": "time 7 day"}, "[7]": {"experiment": "Toxicity in rat assessed as suppression of neutrophil in bone marrow measured for 28 days", "type": "cell-based", "conditions": "672 h, time 28 day"}, "NCI-H1417": {"test_system": "NCI-H1417", "experiment": "Effect on caspase-3 level in human NCI-H1417 cells upto 1000 nM measured after 10 days by Western blot analysis", "type": "functional, cell-based", "conditions": "time 10.0 day"}, "[8]": {"experiment": "Effect on cleaved PARP level in human COLO-668 cells assessed as relative expression at 1000 nM measured after 7 days by Western blot analysis (reference value: […])", "type": "functional", "conditions": "time 7 day"}, "[9]": {"experiment": "Half life in mouse blood at 5 mg/kg, po by HPLC/MS/MS analysis", "type": "ADME, organism-based"}, "[10]": {"experiment": "Effect on cleaved PARP level in human NCI-H889 cells assessed as relative expression at 10 nM measured after 7 days by Western blot analysis (reference value: 0.34)", "type": "functional", "conditions": "time 7 day"}, "[11]": {"experiment": "Effect on cleaved PARP level in human NCI-H69 cells assessed as fold change at 1000 nM measured after 14 days by Western blot analysis (reference value: 1.00)", "type": "functional", "conditions": "time 14 day"}, "[12]": {"experiment": "Effect on cleaved PARP level in human NCI-H510 cells assessed as relative expression at 1000 nM measured after 14 days by Western blot analysis (reference value: 0.01)", "type": "functional, NCI-H510A", "conditions": "time 14 day"}, "[13]": {"experiment": "Effect on cleaved PARP level in human NCI-H146 cells assessed as fold change at 1000 nM measured after 14 days by Western blot analysis (reference value: 1.00)", "type": "functional", "conditions": "time 14 day"}, "NCI-H526 [14]": {"test_system": "NCI-H526", "experiment": "In vivo inhibition of LSD1 in human NCI-H526 cells xenografted in nude mouse assessed as change in LIX1L gene expression measured after 24 hrs post single administration by qRT-PCR analysis", "type": "functional, organism-based", "conditions": "dose 0.06-135 mg/kg"}, "[15]": {"experiment": "Effect on cleaved PARP level in human NCI-H1417 cells assessed as relative expression at 10 nM measured after 14 days by Western blot analysis (reference value: 0.38)", "type": "functional", "conditions": "time 14 day"}, "[16]": {"experiment": "Effect on cleaved PARP level in human NCI-H1694 cells assessed as relative expression at 10 nM measured after 7 days by Western blot analysis (reference value: 0.25)", "type": "functional", "conditions": "time 7 day"}, "[17]": {"experiment": "Effect on cleaved PARP level in human NCI-H146 cells assessed as relative expression at 100 nM measured after 14 days by Western blot analysis (reference value: 2.42)", "type": "functional", "conditions": "time 14 day"}, "[18]": {"experiment": "Effect on cleaved PARP level in human NCI-H510 cells assessed as fold change at 100 nM measured after 10 days by Western blot analysis (reference value: 1.00)", "type": "functional, NCI-H510A", "conditions": "time 10 day"}, "[19]": {"experiment": "Effect on cleaved PARP level in human NCI-H1417 cells assessed as relative expression at 10 nM measured after 7 days by Western blot analysis (reference value: 0.10)", "type": "functional", "conditions": "time 7 day"}, "[20]": {"experiment": "Toxicity in mouse xenografted with human NCI-H526 cells assessed as drug tolerance at 1.5 mg/kg, po administered daily measured for 30 days", "type": "organism-based", "conditions": "in vivo, 720 h, time 30 day"}, "[21]": {"experiment": "Toxicity in dog assessed as suppression of neutrophil in bone marrow measured for 28 days", "type": "cell-based, Canis lupus familiaris", "conditions": "672 h, time 28 day"}, "[22]": {"experiment": "Toxicity in rat assessed as effect on hemodynamics measured for 28 days", "conditions": "in vivo, 672 h, time 28 day"}, "[23]": {"experiment": "AUC (0 to infinity) in mouse blood at 5 mg/kg, po by HPLC/MS/MS analysis", "type": "ADME, organism-based"}, "[24]": {"experiment": "Effect on cleaved PARP level in human NCI-H2171 cells assessed as fold change at 1000 nM measured after 14 days by Western blot analysis (reference value: 1.00)", "type": "functional", "conditions": "time 14 day"}, "NCI-H526 [25]": {"test_system": "NCI-H526", "experiment": "Effect on NSE gene expression in human NCI-H526 cells at 1 uM measured after 4 to 7 days by qRT-PCR analysis", "type": "functional, cell-based", "conditions": "time 4-7 day"}, "[26]": {"experiment": "Effect on cleaved PARP level in human NCI-H1417 cells assessed as fold change at 10 nM measured after 14 days by Western blot analysis (reference value: 1.00)", "type": "functional", "conditions": "time 14 day"}, "[27]": {"experiment": "Effect on cleaved PARP level in human NCI-H1417 cells assessed as fold change at 1000 nM measured after 14 days by Western blot analysis (reference value: 1.00)", "type": "functional", "conditions": "time 14 day"}, "[28]": {"experiment": "Effect on cleaved PARP level in human NCI-H524 cells assessed as fold change at 10 nM measured after 10 days by Western blot analysis (reference value: 1.00)", "type": "functional", "conditions": "time 10 day"}, "[29]": {"experiment": "Tmax in mouse blood at 5 mg/kg, po by HPLC/MS/MS analysis", "type": "ADME, organism-based"}, "[30]": {"experiment": "Effect on cleaved PARP level in human NCI-H889 cells assessed as fold change at 10 nM measured after 10 days by Western blot analysis (reference value: 1.00)", "type": "functional", "conditions": "time 10 day"}, "[31]": {"experiment": "Effect on cleaved PARP level in human NCI-H69 cells assessed as fold change at 10 nM measured after 10 days by Western blot analysis (reference value: 1.00)", "type": "functional", "conditions": "time 10 day"}, "[32]": {"experiment": "Effect on cleaved PARP level in human COLO-668 cells assessed as fold change at 100 nM measured after 14 days by Western blot analysis (reference value: 1.00)", "type": "functional", "conditions": "time 14 day"}, "[33]": {"experiment": "Tmax in mouse tumor at 5 mg/kg, po by HPLC/MS/MS analysis", "type": "ADME, organism-based, Neoplasm"}, "[34]": {"experiment": "Effect on cleaved PARP level in human NCI-H1417 cells assessed as fold change at 100 nM measured after 7 days by Western blot analysis (reference value: 1.00)", "type": "functional", "conditions": "time 7 day"}, "[35]": {"experiment": "Effect on cleaved PARP level in human NCI-H526 cells assessed as fold change at 100 nM measured after 7 days by Western blot analysis (reference value: 1.00)", "type": "functional", "conditions": "time 7 day"}, "[36]": {"experiment": "Effect on cleaved PARP level in human NCI-H526 cells assessed as fold change at 10 nM measured after 10 days by Western blot analysis (reference value: 1.00)", "type": "functional", "conditions": "time 10 day"}},
  "note": "Calls of active or inactive are those of the source. No cut-off for these calls is given here.",
  "data": [
    {"smiles": "O=C(O)c1ccc(CN2CCC(CN[C@@H]3C[C@H]3c3ccccc3)CC2)cc1", "note": "[GSK2879552]", "values": [
      {"measurement": "inhibition", "setting": "NCI-H526 [1]", "result": "Dose-Dependent Effect"},
      {"measurement": "Activity", "setting": "[2]", "result": 0.36},
      {"measurement": "Activity", "setting": "[3]", "result": 0.42},
      {"measurement": "Activity", "setting": "NCI-H446", "result": "inactive"},
      {"measurement": "Activity", "setting": "[4]", "result": "Toxic"},
      {"measurement": "Activity", "setting": "NCI-H526 [5]", "result": "Active"},
      {"measurement": "Activity", "setting": "[6]", "result": 0.36},
      {"measurement": "Activity", "setting": "[7]", "result": "Toxic"},
      {"measurement": "Activity", "setting": "NCI-H1417", "result": "inactive"},
      {"measurement": "Activity", "setting": "[8]", "result": 1.36},
      {"measurement": "half-life", "setting": "[9]", "result": 114, "unit": "min"},
      {"measurement": "Activity", "setting": "[10]", "result": 0.03},
      {"measurement": "fold change (FC)", "setting": "[11]", "result": 5.16},
      {"measurement": "Activity", "setting": "[12]", "result": 0.47},
      {"measurement": "fold change (FC)", "setting": "[13]", "result": 0.6},
      {"measurement": "inhibition", "setting": "NCI-H526 [14]", "result": "Dose-Dependent Effect"},
      {"measurement": "Activity", "setting": "[15]", "result": 0.31},
      {"measurement": "Activity", "setting": "[16]", "result": 0.3},
      {"measurement": "Activity", "setting": "[17]", "result": 1.09},
      {"measurement": "fold change (FC)", "setting": "[18]", "result": 9.72},
      {"measurement": "Activity", "setting": "[19]", "result": 0.16},
      {"measurement": "Activity", "setting": "[20]", "result": "Non-Toxic"},
      {"measurement": "Activity", "setting": "[21]", "result": "Toxic"},
      {"measurement": "Activity", "setting": "[22]", "result": "Toxic"},
      {"measurement": "AUC(0-inf)", "setting": "[23]", "result": 903, "unit": "ng·h/mL"},
      {"measurement": "fold change (FC)", "setting": "[24]", "result": 2.4},
      {"measurement": "Activity", "setting": "NCI-H526 [25]", "result": "inactive"},
      {"measurement": "fold change (FC)", "setting": "[26]", "result": 0.82},
      {"measurement": "fold change (FC)", "setting": "[27]", "result": 1.1},
      {"measurement": "fold change (FC)", "setting": "[28]", "result": 0.81},
      {"measurement": "Tmax", "setting": "[29]", "result": 15, "unit": "min"},
      {"measurement": "fold change (FC)", "setting": "[30]", "result": 1.68},
      {"measurement": "fold change (FC)", "setting": "[31]", "result": 1.74},
      {"measurement": "fold change (FC)", "setting": "[32]", "result": 0.25},
      {"measurement": "Tmax", "setting": "[33]", "result": 30, "unit": "min"},
      {"measurement": "fold change (FC)", "setting": "[34]", "result": 2.85},
      {"measurement": "fold change (FC)", "setting": "[35]", "result": 1.2},
      {"measurement": "fold change (FC)", "setting": "[36]", "result": 0.57}
    ]}
  ]
}
